Results reported in US20050288347A1, “Certain triazole-based compounds, compositions, and uses thereof” (priority 2004, published 2005).
Entries after “also recorded” stand apart in the source; their conditions may differ.

Biological target: protein kinase
Experiment: HTS ATP-utilizing enzyme assay, off-chip mobility-shift format (Caliper HTS 250)
Assay type: biochemical, human
Conditions: test compound 10 μM; for Kinase: kinase(s) for which the compound exhibits protein kinase inhibitory activity, active = greater than three-sigma from the mean activity of inactive compounds; for protein kinase against which the compound exhibits inhibitory activity (Table 3): active = activity greater than three-sigma from the mean of the predominately inactive population for that enzyme
Procedure, shortened: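 Single-point screen at 10 μM compound in HEPES pH 7.5 buffer with Triton X-100 and BSA, 2.5 h at 20–22 °C. Substrate-to-phosphopeptide ratio measured by off-chip microfluidic mobility shift; EDTA wells as 100% and DMSO wells as 0% control, hits called at three-sigma limits.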

Question: `Cn1c(S)nnc1COc1cccc2ccccc12` [4-methyl-5-((naphthalen-1-yloxy)methyl)-4H-1,2,4-triazole-3-thiol] was tested. Which Kinase did it give?
Answer: GSK3-β; also recorded: GSK3-α

Question: How did the “protein kinase against which the compound exhibits inhibitory activity (Table 3)” value turn out when `O=C(O)CCSc1nnc(-c2ccc(O)cc2)n1Cc1ccccc1` [3-(4-benzyl-5-(4-hydroxyphenyl)-4H-1,2,4-triazol-3-ylthio)propanoic acid] was run?
Answer: GSK3-β; also recorded: GSK3-α

Question: How did the Kinase turn out when `Cc1nc(NC(=O)CSc2nnc(C3CC3)n2C)sc1C` was run?
Answer: GSK3-β; also recorded: GSK3-α

Question: With `CCC(=O)Nc1ccc(NC(=O)CSc2nnc(-c3ccc(O)cc3)n2CC)cc1C` as the compound, how does the Kinase read?
Answer: GSK3-α

Question: `CC1CCCCC1NC(=O)CSc1nnc(-c2ccccc2)n1Cc1ccccc1` (stereo not drawn) was tested. Which Kinase did it give?
Answer: AKT1

Question: For `Cc1nnc(SCc2cccc3ccccc23)[nH]1` [3-methyl-5-(naphthalen-1-ylmethylthio)-4H-1,2,4-triazole], which “protein kinase against which the compound exhibits inhibitory activity (Table 3)” value is on record?
Answer: AURORA-A; also recorded: DYRK2; also recorded: GSK3-α

Question: How did the “protein kinase against which the compound exhibits inhibitory activity (Table 3)” value turn out when `COc1ccc(C(=O)NNC(=O)CSc2nnc(-c3ccc(O)cc3)n2Cc2ccco2)cc1` was run?
Answer: GSK3-β; also recorded: AURORA-A; also recorded: PDGFRR-α

Question: For `Cc1cc(NC(=O)CSc2nnc(-c3ccc(O)cc3)n2C)ccc1NC(=O)c1ccccc1C`, which Kinase is on record?
Answer: GSK3-β; also recorded: GSK3-α

Question: Which “protein kinase against which the compound exhibits inhibitory activity (Table 3)” value does the source give for `COc1ccccc1-n1c(SCc2ccccc2Cl)nnc1-c1ccccc1O` [2-(5-(2-chlorobenzylthio)-4-(2-methoxyphenyl)-4H-1,2,4-triazol-3-yl)phenol] here?
Answer: CDK2-cyclinA and PRAK

Question: For `COc1ccccc1-n1c(SCC(=O)Nc2ccc(Cl)cc2)nnc1-c1ccccc1O`, which “protein kinase against which the compound exhibits inhibitory activity (Table 3)” value is on record?
Answer: KIT and AURORA-A

Question: `CCOC(=O)CSc1nnc(-c2ccc(OC)c(OC)c2)n1-c1ccccc1` [ethyl 2-(5-(3,4-dimethoxyphenyl)-4-phenyl-4H-1,2,4-triazol-3-ylthio)acetate] was tested. Which Kinase did it give?
Answer: MAPKAPK-2; also recorded: CDK2-cyclinE

Question: With `Cn1c(SCC(=O)N2CCCC2)nnc1-c1ccc(S(=O)(=O)N2CCOCC2)cc1` as the compound, how does the Kinase read?
Answer: AURORA-A

Question: How did the “protein kinase against which the compound exhibits inhibitory activity (Table 3)” value turn out when `O=C(CSc1nnc(-c2cccnc2)n1Cc1ccccc1)NNC(=O)c1ccc(Br)cc1` was run?
Answer: PDGFRR-α; also recorded: AURORA-A

Question: Which Kinase does the source give for `CCc1ccc(OCc2nnc(SCC(=O)O)n2Cc2ccccc2)cc1` [2-(4-benzyl-5-((4-ethylphenoxy)methyl)-4H-1,2,4-triazol-3-ylthio)acetic acid] here?
Answer: AKT1

Question: Which Kinase does the source give for `COc1ccc(-n2c(S)nnc2CNc2ccc(C)cc2)cc1` [5-((p-toluidino)methyl)-4-(4-methoxyphenyl)-4H-1,2,4-triazole-3-thiol] here?
Answer: AURORA-A; also recorded: PDGFRR-α; also recorded: GSK3-β

Question: With `CCc1nnc(SCC=C(C)C)n1CCc1ccccc1` [3-ethyl-5-(3-methylbut-2-enylthio)-4-phenethyl-4H-1,2,4-triazole] as the compound, how does the “protein kinase against which the compound exhibits inhibitory activity (Table 3)” value read?
Answer: GSK3-α

Question: How did the “protein kinase against which the compound exhibits inhibitory activity (Table 3)” value turn out when `O=C(CSc1nnc(-c2ccccc2)n1Cc1ccccc1)NNC(=O)c1ccccc1O` was run?
Answer: FYN and CSK

Question: For `Oc1ccc(-c2nnc(SCCN3CCCCC3)n2Cc2ccco2)cc1`, which “protein kinase against which the compound exhibits inhibitory activity (Table 3)” value is on record?
Answer: GSK3-α

Question: How did the Kinase turn out when `Cc1ccc([N+](=O)[O-])cc1NC(=O)CSc1nnc(-c2ccc(O)cc2)n1C` was run?
Answer: GSK3-β; also recorded: GSK3-α

Question: `CCn1c(SCc2ccccc2Br)nnc1-c1cc(-c2ccccc2)nc2ccccc12` [4-(5-(2-bromobenzylthio)-4-ethyl-4H-1,2,4-triazol-3-yl)-2-phenylquinoline] was tested. Which “protein kinase against which the compound exhibits inhibitory activity (Table 3)” value did it give?
Answer: CHEK2

Question: Which “protein kinase against which the compound exhibits inhibitory activity (Table 3)” value does the source give for `CCn1c(SCc2ccc(Cl)cc2)nnc1-c1ccc(O)cc1` [4-(5-(4-chlorobenzylthio)-4-ethyl-4H-1,2,4-triazol-3-yl)phenol] here?
Answer: MSK2 and GSK3-β and MSK1

Question: `CCOC(=O)c1cccc(NC(=O)CSc2nnc(CNc3ccc(OC)cc3)n2-c2ccc(OC)cc2)c1` was tested. Which Kinase did it give?
Answer: AURORA-A; also recorded: PDGFRR-α; also recorded: CHEK2

Question: Which Kinase does the source give for `COCCn1c(SCC(=O)Nc2ccc(F)cc2)nnc1-c1ccncc1` here?
Answer: FYN

Question: With `CCn1c(CNc2ccc(OC)cc2)nnc1SCC(=O)Nc1ccccc1C(F)(F)F` as the compound, how does the Kinase read?
Answer: FYN and PDGFRR-α and FLT-3

Question: How did the “protein kinase against which the compound exhibits inhibitory activity (Table 3)” value turn out when `COc1ccccc1-n1c(SCC(=O)Nc2cccc(NC(=O)C3CCCO3)c2)nnc1-c1ccccc1O` (stereo not drawn) was run?
Answer: AURORA-A

Question: How did the Kinase turn out when `Cc1cccc(OCc2nnc(S)n2C2CCCCC2)c1` [4-cyclohexyl-5-(m-tolyloxymethyl)-4H-1,2,4-triazole-3-thiol] was run?
Answer: GSK3-α; also recorded: CHEK1; also recorded: AURORA-A

Question: Which Kinase does the source give for `COc1ccc(NCc2nnc(SCC(=O)Nc3ccccc3)n2-c2ccc(C)cc2)cc1` here?
Answer: FYN and PDGFRR-α and FLT-3

Question: For `Cc1cccc(-c2nnc(SCC(=O)c3ccc4c(c3)OCCO4)[nH]2)c1`, which Kinase is on record?
Answer: FLT-3; also recorded: GSK3-α; also recorded: AURORA-A

Question: With `CCOC(=O)CN(C(=O)CSc1nnc(-c2ccncc2)n1CCCN(C)C)c1cccc([N+](=O)[O-])c1` as the compound, how does the Kinase read?
Answer: CDK1

Question: `CCn1c(SCCN2CCCCC2)nnc1-c1ccc([N+](=O)[O-])cc1` [1-(2-(4-ethyl-5-(4-nitrophenyl)-4H-1,2,4-triazol-3-ylthio)ethyl)piperidine] was tested. Which “protein kinase against which the compound exhibits inhibitory activity (Table 3)” value did it give?
Answer: PDGFRR-α

Question: How did the Kinase turn out when `Cn1c(Cc2ccccc2)nnc1SCC#N` [2-(5-benzyl-4-methyl-4H-1,2,4-triazol-3-ylthio)acetonitrile] was run?
Answer: AURORA-A

Question: With `COc1ccc(-n2c(CNc3ccccc3Cl)nnc2SCc2ccc(Cl)cc2)cc1` as the compound, how does the “protein kinase against which the compound exhibits inhibitory activity (Table 3)” value read?
Answer: MAPKALPK-2 and AKT1

Question: With `Cn1c(COc2cccc3ccccc23)nnc1SCC(=O)O` as the compound, how does the Kinase read?
Answer: CDK2-cyclinA; also recorded: AURORA-A

Question: Which Kinase does the source give for `COc1ccc(NCc2nnc(S)n2-c2cccc(Cl)c2)cc1` here?
Answer: PDGFRR-α and AURORA-A and FYN

Question: Which Kinase does the source give for `COc1ccc(-c2nnc(SCC(=O)Nc3ccc4c(c3)OCO4)n2C)cc1` here?
Answer: AKT1

Question: How did the “protein kinase against which the compound exhibits inhibitory activity (Table 3)” value turn out when `CCn1c(SCc2ccc(Cl)cc2)nnc1-c1ccncc1` [4-(5-(4-chlorobenzylthio)-4-ethyl-4H-1,2,4-triazol-3-yl)pyridine] was run?
Answer: PKA and AURORA-A and MSK2

Question: With `Cn1c(SCC(=O)N2CCCc3ccccc32)nnc1-c1cc2ccccc2cc1O` as the compound, how does the Kinase read?
Answer: FYN and AURORA-A and DAPK1

Question: Which Kinase does the source give for `N#CCSc1nnc(COc2cccc3ccccc23)n1-c1ccccc1` here?
Answer: MAPKAPK-2 and CDK1 and CDK5

Question: For `N#CCSc1nnc(-c2ccccc2)[nH]1` [2-(5-phenyl-4H-1,2,4-triazol-3-ylthio)acetonitrile], which Kinase is on record?
Answer: DYRK2; also recorded: FLT-3; also recorded: AURORA-A

Question: How did the “protein kinase against which the compound exhibits inhibitory activity (Table 3)” value turn out when `Cc1ccc(-n2c(SCc3ccccc3)nnc2-c2cccnc2)cc1` [3-(5-(benzylthio)-4-p-tolyl-4H-1,2,4-triazol-3-yl)pyridine] was run?
Answer: AURORA-A

Question: With `CCn1c(S)nnc1CSc1nc(C)cc(C)n1` [5-((4,6-dimethylpyrimidin-2-ylthio)methyl)-4-ethyl-4H-1,2,4-triazole-3-thiol] as the compound, how does the Kinase read?
Answer: GSK3-α

Question: For `COc1ccc(NCc2nnc(SCC(=O)Nc3cccc(Cl)c3)n2C)cc1`, which Kinase is on record?
Answer: PDGFRR-α and AURORA-A and FYN

Question: Which Kinase does the source give for `Cc1cc(OCc2nnc(SCC(=O)O)n2Cc2ccccc2)ccc1Cl` here?
Answer: HCK

Question: With `CCOC(=O)c1ccc(NC(=O)CSc2nnc(-c3ccc(O)cc3)n2C)cc1` as the compound, how does the Kinase read?
Answer: GSK3-β; also recorded: AURORA-A; also recorded: GSK3-α

Question: How did the Kinase turn out when `C=CCn1c(S)nnc1-c1cc(OC)c(OC)c(OC)c1` [4-allyl-5-(3,4,5-trimethoxyphenyl)-4H-1,2,4-triazole-3-thiol] was run?
Answer: GSK3-β; also recorded: GSK3-α

Question: For `CN(C)CCCSc1nnc(-c2cccc(C(F)(F)F)c2)[nH]1`, which “protein kinase against which the compound exhibits inhibitory activity (Table 3)” value is on record?
Answer: CHEK2; also recorded: c-TAK1; also recorded: GSK3-β

Question: For `Cn1c(COc2ccc(Br)cc2)nnc1SCC(=O)O`, which Kinase is on record?
Answer: AURORA-A

Question: `COc1ccc(NCc2nnc(SCCN3CCCCC3)n2C)cc1` was tested. Which “protein kinase against which the compound exhibits inhibitory activity (Table 3)” value did it give?
Answer: FYN and PDGFRR-α

Question: For `CC(C)(C)c1nnc(SCC(=O)c2ccc3c(c2)OCCO3)[nH]1`, which Kinase is on record?
Answer: DYRK2; also recorded: GSK3-α

Question: For `CCOC(=O)c1ccc(CSc2nnc(-c3ccccc3)[nH]2)o1` [ethyl 5-((5-phenyl-4H-1,2,4-triazol-3-ylthio)methyl)furan-2-carboxylate], which “protein kinase against which the compound exhibits inhibitory activity (Table 3)” value is on record?
Answer: AURORA-A; also recorded: FLT-3; also recorded: GSK3-β

Question: `CCn1c(SCC(=O)Nc2ccc(C)cc2)nnc1-c1ccc(O)cc1` was tested. Which Kinase did it give?
Answer: AURORA-A

Question: With `CCn1c(SCCSc2nnc(C3CCCCC3)n2CC)nnc1C1CCCCC1` [1,2-bis(5-cyclohexyl-4-ethyl-4H-1,2,4-triazol-3-ylthio)ethane] as the compound, how does the “protein kinase against which the compound exhibits inhibitory activity (Table 3)” value read?
Answer: CHEK2

Question: How did the “protein kinase against which the compound exhibits inhibitory activity (Table 3)” value turn out when `COCCCn1c(SCc2ccccc2Cl)nnc1-c1ccc(C(C)(C)C)cc1` was run?
Answer: CDK1

Question: With `Cc1nnc(SC(C)C(=O)Nc2ccccc2)n1Cc1ccccc1` (stereo not drawn) [2-(4-benzyl-5-methyl-4H-1,2,4-triazol-3-ylthio)-N-phenylpropanamide] as the compound, how does the Kinase read?
Answer: PKA and DAPK1

Question: How did the Kinase turn out when `CC(Sc1nnc(-c2ccc(O)cc2)n1Cc1ccco1)C(=O)Nc1ccc([N+](=O)[O-])cc1` (stereo not drawn) was run?
Answer: LCK

Question: For `C=CCn1c(CSc2nc3ccccc3s2)nnc1SCC(=O)NCCO`, which Kinase is on record?
Answer: HCK

Question: For `COc1ccccc1-n1c(CNc2c(C)cccc2C)nnc1SCC(=O)Nc1cccc(O)c1`, which Kinase is on record?
Answer: CHEK2

Question: With `COc1ccccc1-n1c(SCC(=O)OCc2ccccc2)nnc1-c1ccccc1O` as the compound, how does the Kinase read?
Answer: KIT

Question: With `CCOc1ccc(NCc2nnc(SC(C)C(=O)N(c3ccccc3)c3ccccc3)n2-c2ccc(OC)cc2)cc1` (stereo not drawn) as the compound, how does the Kinase read?
Answer: FYN

Question: With `c1ccc(-c2nnc(SCC3CCCCC3)[nH]2)cc1` [3-(cyclohexylmethylthio)-5-phenyl-4H-1,2,4-triazole] as the compound, how does the “protein kinase against which the compound exhibits inhibitory activity (Table 3)” value read?
Answer: AURORA-A; also recorded: c-TAK1; also recorded: CHEK2

Question: For `Cn1c(CNc2cccc(C(F)(F)F)c2)nnc1SCC(=O)Nc1ccc2c(c1)OCO2`, which Kinase is on record?
Answer: AURORA-A

Question: How did the “protein kinase against which the compound exhibits inhibitory activity (Table 3)” value turn out when `c1cncc(-c2nnc(SCC3CC3)[nH]2)c1` [3-(5-(cyclopropylmethylthio)-4H-1,2,4-triazol-3-yl)pyridine] was run?
Answer: FLT-3; also recorded: AURORA-A

Question: Which “protein kinase against which the compound exhibits inhibitory activity (Table 3)” value does the source give for `COc1ccccc1-n1c(SC2Cc3ccccc3C2=O)nnc1-c1cccc(Cl)c1` (stereo not drawn) here?
Answer: ROCK2
